Our source for the Ki and EC50 values is patent US9029405B2, “5-(biphenyl-4-yl)-3-phenyl-1,2,4-oxadiazolyl derivatives as ligands on the sphingosine 1-phosphate(SIP)receptors” (Merck Serono S.A., priority 2010, dated 2015).

Where two headings read alike, the source gives them in different places.

In general, Ki refers to a measure of affinity in units of concentration, obtained from inhibition or displacement. The EC50 is the concentration needed to bring the measured effect to its halfway point. A low value points to an effect from little substance.

For test [1], the target named is S1P3 (Homo sapiens, UniProt Q99500). Nature of the test: Receptor binding assay, [33P]sphingosine 1-phosphate competition, membranes of CHO cells expressing S1P3. Summed up: (§1)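 SPA competition on CHO membranes with [33P]S1P at 30 pM (S1P1) or 15 pM (S1P3), in 50 mM HEPES pH 7.5, 5 mM MgCl2, 100 mM NaCl, 0.4% fatty acid-free BSA, 60 min at RT. Non-specific binding defined by 1000-fold unlabeled S1P; Ki values reported.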
S1P3, sequence (Q99500 whole entry, species assumed): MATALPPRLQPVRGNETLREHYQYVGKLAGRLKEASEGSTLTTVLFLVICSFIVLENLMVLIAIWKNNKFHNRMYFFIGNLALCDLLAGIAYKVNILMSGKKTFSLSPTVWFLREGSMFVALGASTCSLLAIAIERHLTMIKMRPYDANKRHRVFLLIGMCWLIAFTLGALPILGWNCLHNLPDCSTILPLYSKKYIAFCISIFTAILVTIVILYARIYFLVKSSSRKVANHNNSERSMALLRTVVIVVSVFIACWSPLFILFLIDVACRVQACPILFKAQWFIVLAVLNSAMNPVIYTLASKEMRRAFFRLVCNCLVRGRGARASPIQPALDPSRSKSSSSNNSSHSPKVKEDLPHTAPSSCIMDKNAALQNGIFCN

Test [2] addresses T1, S1P1 (Homo sapiens, UniProt P21453). Nature of the test: Receptor binding assay, [33P]sphingosine 1-phosphate competition, membranes of CHO cells expressing S1P1. The settings on record: 384 well plate; read-out: S1P1 Binding Ki [M] (384 well plate). The method, boiled down:
as §1
Target sequence in this assay (P21453 whole entry, species assumed): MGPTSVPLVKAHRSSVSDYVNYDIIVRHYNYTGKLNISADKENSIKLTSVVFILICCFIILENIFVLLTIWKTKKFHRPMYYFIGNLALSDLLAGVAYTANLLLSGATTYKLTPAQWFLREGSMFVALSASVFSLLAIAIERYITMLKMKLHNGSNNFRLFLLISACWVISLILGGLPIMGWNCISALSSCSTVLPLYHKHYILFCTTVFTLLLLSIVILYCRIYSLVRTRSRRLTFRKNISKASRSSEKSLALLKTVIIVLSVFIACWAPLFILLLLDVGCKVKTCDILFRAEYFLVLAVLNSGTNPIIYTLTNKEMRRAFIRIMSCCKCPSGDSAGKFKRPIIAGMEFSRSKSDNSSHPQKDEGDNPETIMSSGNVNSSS

The target in test [3] is T1, S1P1. Nature of the test: S1P1 internalization assay in S1P1-U2OS cells (cell imaging). The test is classed as cell-based. The arrangement: host or cells: U2OS (human bone osteosarcoma epithelial cells). To be noted: U2OS cells expressing S1P1-EGFP, 384-well format. The method, boiled down:
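U2OS cells stably expressing human S1P1-EGFP, serum-starved 2 h in medium with 0.1% fatty-acid-free BSA, then compound 1 h at 37° C. After fixation and Hoechst nuclear stain, receptor internalization imaged as EGFP spot count per nucleus.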
Target sequence in this assay (P21453 whole entry): as the sequence (P21453 whole entry, species assumed) above

Where [4] appears, read: 384 well plate, read-out: S1P3 Binding Ki [M] (384 well plate).
The mark [5] stands for this setting: 96 well plate, read-out: S1P3 Binding Ki [M] (96 well plate).

In the case of `CC[C@H](NCc1ccc(-c2noc(-c3ccc(-c4ccccc4C)c(C(F)(F)F)c3)n2)cc1)C(=O)O` [Example 54, (2S)-2-(4-(5-(2′-methyl-2-(trifluoromethyl)biphenyl-4-yl)-1,2,4-oxadiazol-3-yl)benzylamino)butanoic acid], the figures for the Ki in test [1] (setting [4]) and in test [2] were 6.69e-06 M and 7.95e-09 M, respectively. In addition, the EC50 in test [3] stood at 39.7 nM.

In the case of `Cc1ccccc1-c1ccc(-c2nc(-c3ccc(CN[C@H](C(=O)O)C(C)C)cc3)no2)cc1C(F)(F)F` [Example 55], the Ki in test [1] (setting [4]) was found to be 8.02e-07 M; in test [2], 2.2e-09 M. In addition, the response in test [3] was half-maximal at 16.8 nM (EC50).

As for `Cc1ccccc1-c1ccc(-c2nc(-c3ccc(CN(C)C(C)(C)C(=O)O)cc3)no2)cc1C(F)(F)F` [Example 56], the Ki turned out to be 8.54e-06 M in test [1] (setting [4]) and 4.13e-09 M in test [2]. The same compound showed an EC50 in test [3] of 57.8 nM.

Turning to `Cc1ccccc1-c1ccc(-c2nc(-c3ccc(CNC(C)(C)C(=O)O)cc3)no2)cc1C(F)(F)F` [Example 57], the Ki in test [1] (setting [4]) was above 2e-05 M; in test [2], 5.69e-09 M. This compound came in with an EC50 in test [3] of 19.9 nM.

Consider `CCC(NCc1ccc(-c2noc(-c3ccc(-c4ccccc4C)c(C(F)(F)F)c3)n2)cc1)C(=O)O` (centres unmarked) [Example 58], for which the Ki in test [1] (setting [4]) was found to be 5.22e-06 M; in test [2] it was 3.39e-09 M. In test [3], this compound displayed an EC50 of 4.87 nM.

`Cc1ccccc1-c1ccc(-c2nc(-c3ccc(CNC4(C(=O)O)CCCC4)cc3)no2)cc1C(F)(F)F` [Example 59]: the Ki in test [1] (setting [4]) is above 2e-05 M; in test [2], 6.83e-09 M. This compound came in with a concentration for a half-maximal effect (EC50) in test [3] of 44.4 nM.

For the compound `Cc1ccccc1-c1ccc(-c2nc(-c3ccc(CN[C@@H](CCO)C(=O)O)cc3)no2)cc1C(F)(F)F` [Example 60], the Ki in test [1] (setting [4]) was 1.03e-06 M; in test [2] it was 3.46e-09 M. In test [3], this compound returned an EC50 of 24.2 nM.

For the compound `Cc1ccccc1-c1ccc(-c2nc(-c3ccc(CN[C@H](C(=O)O)[C@@H](C)O)cc3)no2)cc1C(F)(F)F` [Example 61], the figures for the Ki in test [1] (setting [4]) and in test [2] were 1.15e-06 M and 4.27e-09 M, respectively. Also, a half-maximal response in test [3] (EC50) required 23.3 nM.

Consider `Cc1ccccc1-c1ccc(-c2nc(-c3ccc(CNCC(C)C(=O)O)cc3)no2)cc1C(F)(F)F` (centres unmarked) [Example 63], for which the values for the Ki in test [1] (setting [4]) and in test [2] were 2.02e-07 M and 1.15e-09 M, respectively. Further, in test [3], the midpoint of the response, the EC50, lay at 3.47 nM.

As for `Cc1ccccc1-c1ccc(-c2nc(-c3ccc(CNC(C(=O)O)C(C)O)cc3)no2)cc1C(F)(F)F` (centres unmarked) [Example 64], the Ki in test [1] (setting [4]) was determined as 1.99e-06 M; in test [2], 6.78e-09 M. The EC50 in test [3] was 45.9 nM.

`Cc1ccccc1-c1ccc(-c2nc(-c3ccc(CNC(C)(CO)C(=O)O)cc3)no2)cc1C(F)(F)F` (centres unmarked) [Example 65]: the values for the Ki in test [1] (setting [4]) and in test [2] were 2.56e-06 M and 4.82e-09 M, respectively. In test [3], this compound yielded an EC50 of 7.53 nM.

As for `Cc1ccccc1-c1ccc(-c2nc(-c3ccc(CNC4(C(=O)O)CCC4)cc3)no2)cc1C(F)(F)F` [Example 66], the Ki was 9.31e-07 M in test [1] (setting [4]) and 3.86e-09 M in test [2]. The compound also registered an EC50 in test [3] of 27.6 nM.

In the case of `Cc1ccccc1-c1ccc(-c2nc(-c3ccc(CN[C@@H](C)C(=O)O)cc3)no2)cc1C(F)(F)F` [Example 67], the Ki is 4.49e-06 M in test [1] (setting [4]) and 3.45e-09 M in test [2]. This compound also showed an EC50 in test [3] of 28.5 nM.

As to `Cc1ccccc1-c1ccc(-c2nc(-c3ccc(CN[C@H](C)C(=O)O)cc3)no2)cc1C(F)(F)F` [Example 68], the Ki in test [1] (setting [4]) was found to be 7.57e-06 M; in test [2], 2.47e-09 M. The compound also gave an EC50 in test [3] of 20.5 nM.

With `CC[C@@H](C(=O)O)N(C)Cc1ccc(-c2noc(-c3ccc(-c4ccccc4C)c(C(F)(F)F)c3)n2)cc1` [Example 69, (2S)-2-(methyl(4-(5-(2′-methyl-2-(trifluoromethyl)biphenyl-4-yl)-1,2,4-oxadiazol-3-yl)benzyl)amino)butanoic acid], the Ki was 4.07e-06 M in test [1] (setting [4]) and 5.2e-09 M in test [2]. For the same compound, in test [3], the EC50 is 49.1 nM.

For the compound `Cc1ccccc1-c1ccc(-c2nc(-c3ccc(CN(C)[C@@H](C)C(=O)O)cc3)no2)cc1C(F)(F)F` [Example 70], the Ki in test [1] (setting [4]) was determined as 7.53e-07 M; in test [2], 2.98e-09 M. Also, a half-maximal response in test [3] (EC50) required 18.8 nM.

As to `Cc1ccccc1-c1ccc(-c2nc(-c3ccc(CN(C)[C@H](C)C(=O)O)cc3)no2)cc1C(F)(F)F` [Example 71], the figures for the Ki in test [1] (setting [5]), in test [1] (setting [4]) and in test [2] were 7.01e-07 M, 7.7e-07 M and 2e-09 M, respectively. Besides, in test [3], the EC50 turned out to be 5.66 nM.

Regarding `Cc1ccccc1-c1ccc(-c2nc(-c3ccc(CN(C)[C@H](CO)C(=O)O)cc3)no2)cc1C(F)(F)F` [Example 72], the Ki in test [1] (setting [4]) was found to be 2.66e-06 M; in test [2], 3.94e-09 M. Further, the EC50 in test [3] was determined as 31.9 nM.

Turning to `Cc1ccccc1-c1ccc(-c2nc(-c3ccc(CN(C)C4(C(=O)O)CCCC4)cc3)no2)cc1C(F)(F)F` [Example 73], the results for the Ki in test [1] (setting [4]) and in test [2] were 5.42e-06 M and 2.27e-09 M, respectively. The same compound showed a concentration giving a half-maximal response (EC50) in test [3] of 29.8 nM.

Turning to `Cc1ccccc1-c1ccc(-c2nc(-c3ccc(CN(C)C(C)(CO)C(=O)O)cc3)no2)cc1C(F)(F)F` (centres unmarked) [Example 75], the Ki was 2.3e-06 M in test [1] (setting [4]) and 5.3e-09 M in test [2]. Also, the response in test [3] was half-maximal at 30.2 nM (EC50).

Turning to `Cc1ccccc1-c1ccc(-c2nc(-c3cccc(CNC(C)(CO)C(=O)O)c3)no2)cc1C(F)(F)F` (centres unmarked) [Example 78], the Ki in test [1] (setting [4]) turned out to be 2.78e-07 M; in test [2] it was 2.16e-09 M. In test [3], this compound came in with an EC50 of 22.3 nM.

With `Cc1ccccc1-c1ccc(-c2nc(-c3cccc(CNC(C(=O)O)C(C)C)c3)no2)cc1C(F)(F)F` (centres unmarked) [Example 79], the values for the Ki in test [1] (setting [5]), in test [1] (setting [4]) and in test [2] were 3.32e-08 M, 2.67e-07 M and 1.07e-09 M, respectively. Besides, the response in test [3] was half-maximal at 15.1 nM (EC50).

On to `Cc1ccccc1-c1ccc(-c2nc(-c3cccc(CNC4(C(=O)O)CCC4)c3)no2)cc1C(F)(F)F` [Example 80], for which the results for the Ki in test [1] (setting [4]) and in test [2] were 3.51e-08 M and 3.18e-10 M, respectively. In test [3], the EC50 is 1.22 nM.

In the case of `Cc1ccccc1-c1ccc(-c2nc(-c3cccc(CN(C)[C@@H](C)C(=O)O)c3)no2)cc1C(F)(F)F` [Example 81], the Ki in test [1] (setting [4]) stood at 1.72e-07 M; in test [2] it was 1.72e-09 M. This compound also gave an EC50 in test [3] of 49.5 nM.

Consider `Cc1ccccc1-c1ccc(-c2nc(-c3cccc(CN[C@H](C)C(=O)O)c3)no2)cc1C(F)(F)F` [Example 82], for which the results for the Ki in test [1] (setting [4]) and in test [2] were 1.17e-07 M and 1.01e-09 M, respectively. In test [3], this compound registered an EC50 of 25.1 nM.

As to `Cc1ccccc1-c1ccc(-c2nc(-c3cccc(CN(C)C(C(=O)O)C(C)C)c3)no2)cc1C(F)(F)F` (centres unmarked) [Example 85], the Ki turned out to be 7.93e-07 M in test [1] (setting [4]) and 5.26e-09 M in test [2]. The compound also returned an EC50 in test [3] of 47.9 nM.

As to `CC[C@@H](C(=O)O)N(C)Cc1cccc(-c2noc(-c3ccc(-c4ccccc4C)c(C(F)(F)F)c3)n2)c1` [Example 86], the Ki in test [1] (setting [4]) is 5.55e-07 M; in test [2], 5.88e-09 M. Besides, in test [3], the midpoint of the response, the EC50, lay at 39.7 nM.

For the compound `CCN(Cc1cccc(-c2noc(-c3ccc(-c4ccccc4C)c(C(F)(F)F)c3)n2)c1)[C@H](CO)C(=O)O` [Example 87, (R)-2-(Ethyl-{3-[5-(2′-methyl-2-trifluoromethyl-biphenyl-4-yl)-[1,2,4]oxadiazol-3-yl]-benzyl}-amino)-3-hydroxy-propionic acid], the figures for the Ki in test [1] (setting [4]) and in test [2] were 4.68e-07 M and 2.29e-09 M, respectively. For the same compound, in test [3], the EC50 was determined as 24.9 nM.
